Test results as given in patent US20150315211A1, “SMALL MOLECULES FOR THE MODULATION OF MCL-1 AND METHODS OF MODULATING CELL DEATH, CELL DIVISION, CELL DIFFERENTIATION AND METHODS OF TREATING DISORDERS” (priority 2010, published 2015).
Read-outs that look alike come from different tables or passages of the source.

Assays:
MCL-1ΔNΔC [1] = test: High-throughput competitive FP binding screen, FITC-MCL-1 SAHB/MCL-1ΔNΔC interaction
BCL-XLΔC = BCL-XLΔC (Homo sapiens, UniProt Q07817); test: High-throughput competitive FP binding screen, FITC-BAD BH3/BCL-XLΔC interaction
MCL-1ΔNΔC [2] = target: MCL-1ΔNΔC (Homo sapiens, UniProt Q07820); test: High-throughput competitive FP binding screen, FITC-MCL-1 SAHB/MCL-1ΔNΔC interaction; design: the C-terminal alpha-helix was deleted from each of these constructs; GST (N, cleaved yes); made in house
[3] = selectivity for MCL-1ΔNΔC over BCL-XLΔC targeting (BCL-XL % Bound minus MCL-1 % Bound)
[4] = FITC-BAD BH3/BCL-XLΔC interaction pair, competitive FP screen
[5] = FITC-MCL-1 SAHB/MCL-1ΔNΔC interaction pair, competitive FP screen

Chain of BCL-XLΔC (Q07817 1-212 limits assumed, stated change not applied): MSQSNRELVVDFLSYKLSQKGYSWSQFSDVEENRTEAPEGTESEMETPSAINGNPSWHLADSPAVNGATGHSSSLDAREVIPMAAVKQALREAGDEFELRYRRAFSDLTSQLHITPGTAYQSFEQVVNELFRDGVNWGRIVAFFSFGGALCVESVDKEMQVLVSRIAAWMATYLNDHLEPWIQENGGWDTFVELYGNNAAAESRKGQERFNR
Chain of MCL-1ΔNΔC (Homo sapiens, UniProt Q07820) (Q07820 172-320 limits assumed, stated change not applied): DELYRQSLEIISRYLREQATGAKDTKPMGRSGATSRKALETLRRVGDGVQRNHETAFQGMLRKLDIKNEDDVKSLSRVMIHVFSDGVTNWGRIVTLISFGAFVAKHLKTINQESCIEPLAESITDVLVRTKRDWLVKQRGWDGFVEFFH

SMILES	Spec Values (MCL-1ΔNΔC [1]; [3])	BCL-XL % Bound (BCL-XLΔC; [4])	MCL-1% Bound (MCL-1ΔNΔC [2]; [5])	Spec Values (MCL-1ΔNΔC [1])	BCL-XL % Bound (BCL-XLΔC)	MCL-1% Bound (MCL-1ΔNΔC [2])
CC1(C)CC(=O)C2=C(C1)Nc1ccc3ncccc3c1C2c1ccc(O)c(O)c1 (stereo not drawn)	47.01	95.33%	48.32%	–	–	–
CCn1c(-c2ccccc2)cnc1S	51.73	105.8%	54.03%	–	–	–
O=C1NC(=S)C(=C2CCCC2)S1	55.3	93.34%	38.05%	–	–	–
CCOc1cc(/C=C(/C#N)c2cccc(Br)c2)ccc1OCc1ccc(C(=O)O)o1	50.28	85.88%	35.61%	–	–	–
O=C(O)/C(S)=C\C=C\c1ccccc1	46.13	90.49%	44.36%	–	–	–
Cc1cc2c(n1-c1ccc(C(=O)O)cc1)CCCC2	71.18	65.33%	−5.85%	–	–	–
O=C1C=CC(=O)C(CCCCCCC2=CC(=O)C=CC2=O)=C1	59.34	106.5%	47.19%	–	–	–
COc1ccc(C(=O)c2sc3cc(-c4ccco4)cc(C(F)(F)F)c3c2N)cc1OC	70.97	85.27%	14.29%	–	–	–
Cc1ccc(C)c(S(=O)(=O)Nc2cc(Cl)c3oc(=O)sc3c2)c1	61.36	86.74%	25.38%	–	–	–
C=CCN1C(=O)/C(=C\c2ccc(N(CC)CC)cc2)C(=O)NC1=S	–	–	–	60.35	102.2%	41.82%
NC(=O)c1c(Nc2nc3c(F)cccc3s2)sc2c1CCCC2	89.1	103.9%	14.83%	–	–	–
O=S(=O)(Nc1ccc(Oc2ccc(Cl)cc2C2CCCCC2)nc1)c1cccc2nonc12	82.7	103.4%	20.72%	–	–	–
CCCCCSc1nnc(N/C=N/O)s1	45.49	98.25%	52.76%	–	–	–
Cc1ccnc(NC(c2ccco2)c2c(C)[nH]c3ccccc23)c1 (stereo not drawn)	45.19	94.99%	49.8%	–	–	–
Cc1cc(C)c2nc(N3CCCN(C(=O)c4ccco4)CC3)c(C#N)cc2c1	80.8	92.2%	11.4%	–	–	–
O=C1C(Sc2nc[nH]n2)=CC(NS(=O)(=O)c2ccc(F)cc2)c2ccccc21 (stereo not drawn)	91.16	96.12%	4.952%	–	–	–
Cc1cccc(NC(=O)CSc2nncc(=O)[nH]2)c1	55	82.27%	27.28%	–	–	–
Cc1ccc(C2=NC(=O)/C(=C/c3cc(O)c(O)c(Br)c3)S2)cc1	93.98	96.59%	2.607%	–	–	–
Cc1occc1-c1nnc2n1N=C(c1ccc(-c3cc(Cl)ccc3Cl)o1)CS2	81.03	104%	22.98%	–	–	–
Oc1ccc(C2Oc3ccccc3C3CC(c4ccccc4O)=NN32)cc1 (stereo not drawn)	45.43	93.42%	47.99%	–	–	–

SMILES	Spec Values (MCL-1ΔNΔC [1]; [3])	BCL-XL % Bound (BCL-XLΔC; [4])	MCL-1% Bound (MCL-1ΔNΔC [2]; [5])	Spec Values (MCL-1ΔNΔC [1])	BCL-XL % Bound (BCL-XLΔC)	MCL-1% Bound (MCL-1ΔNΔC [2])
CC1=C(C#N)C(=O)N=C(O)/C1=C\c1ccc(-c2ccc(S(N)(=O)=O)cc2)o1 [drawing 191]	76.4	98.2%	21.8%	–	–	–
O=C1CSCC(=O)N1c1csc(C(F)(F)F)c1-c1ccccc1	74.8	96.35%	21.55%	–	–	–
CC1=C(C#N)C(=O)N(CCc2ccccc2)C(=O)/C1=C\c1ccc(-c2cccc(Cl)c2)o1	49.43	78.77%	29.33%	–	–	–
N=C1NC(=O)/C(=C2/C(=O)Nc3ccc(Br)cc32)S1	45.52	95.58%	50.06%	–	–	–
O=C1c2ccccc2-c2onc3ccc(Oc4c(F)c(F)c(F)c(F)c4F)c1c23	45.97	86.73%	40.76%	–	–	–
c1ccc2c(c1)nc(Nc1ccc(N3CCCCC3)cc1)c1nncn12	55.41	90.45%	35.03%	–	–	–
CC1CCN(C2=NN3C(=N)/C(=C\c4ccc(SCc5ccco5)o4)C(=O)N=C3S2)CC1	70.38	84.68%	14.3%	–	–	–
COC(=O)/C=C1/OC(c2ccc(Cl)cc2)=CC1=O	75.38	97.17%	21.79%	–	–	–
O=C(NN1C(=O)S/C(=C/C=C/c2ccco2)C1=O)c1ccccc1O	76.1	95.8%	19.8%	–	–	–
O=C(CSc1nnc(-c2ccoc2)c(-c2ccoc2)n1)c1ccc(-c2ccccc2)cc1	53.14	98.52%	45.38%	–	–	–
COC(=O)c1c(N)sc2c1Cc1ccccc1C2	45.24	92.93%	47.69%	–	–	–
Oc1cccc(C(c2ccc3cccnc3c2O)N2CCCC2)c1 (stereo not drawn)	62.71	106.4%	43.7%	–	–	–
O=C1C=Cc2ccc3c4c(ccc1c24)C=CC3=O	64.7	91.4%	26.7%	–	–	–
COc1cc(OC)c(C2=NOC(C(=O)Nc3cc(C)n(CC(=O)NCc4ccco4)n3)C2)cc1Cl (stereo not drawn)	98.12	83.62%	−14.5%	–	–	–
CC(C)Cn1c2ccc(Cl)cc2c2nc3ccccc3nc21	57.12	89.44%	32.32%	–	–	–
N#CC(C#N)=C(C#N)c1ccc(-c2ccccc2)[nH]1	55.59	90.7%	35.11%	–	–	–
O=c1ccc(-c2ccco2)nn1Cc1ccc(Cl)c(Cl)c1	49.7	96.49%	46.79%	–	–	–
N#C/C(=C\c1ccc(O)c(O)c1)C(N)=S [drawing 231]	–	–	–	66.21	100.8%	34.55%
O=c1c(O)c(-c2cc(O)c(O)c(O)c2)oc2cc(O)cc(O)c12 [drawing 14]	68.23	102.4%	34.13%	–	–	–
CCCCc1c(C)sc(NC(=S)Nn2cnnc2)c1C(=O)OCC	64.95	69.53%	4.578%	–	–	–

SMILES	Spec Values (MCL-1ΔNΔC [1]; [3])	BCL-XL % Bound (BCL-XLΔC; [4])	MCL-1% Bound (MCL-1ΔNΔC [2]; [5])	Spec Values (MCL-1ΔNΔC [1])	BCL-XL % Bound (BCL-XLΔC)	MCL-1% Bound (MCL-1ΔNΔC [2])
Clc1cccc2c(N3CCCCCC3)cnnc12	63.59	85.37%	21.78%	–	–	–
C=CCSc1nnc(-c2ccc(C(C)(C)C)cc2)n1Cc1ccco1	52.3	122.3%	69.99%	–	–	–
Cc1nc(COC(=O)c2cc(O)c3ccccc3c2O)cs1	61.73	101.3%	39.52%	–	–	–
O=C(O)c1cccc(-c2ccc(/C=C3\Sc4ccccc4C3=O)o2)c1	64.25	95.42%	31.17%	–	–	–
CC1=C(O)C(=O)C=C2C1=CC=C1[C@@]2(C)CC[C@@]2(C)[C@@H]3C[C@](C)(C(=O)O)CC[C@]3(C)CC[C@]12C [Celastrol, reference compound]	–	–	–	64.19	97.09%	32.9%
CC1(C)CC(=O)C(=Cc2cn(-c3ccccc3)nc2-c2cccs2)C(=O)C1	47.55	90.62%	43.07%	–	–	–
Oc1ccc(/C=N/NC(=S)Nc2ccc(Cl)cc2Cl)c(O)c1O	98.23	87.36%	−10.87%	–	–	–
CC1CCc2c(sc3ncn4c(S)nnc4c23)C1 (stereo not drawn)	46.37	95.03%	48.65%	–	–	–
CNc1sc(C(=O)c2cccs2)c(N)c1-c1nc2ccccc2s1	48.22	92.47%	44.25%	–	–	–
CC1(C)c2ssc(=S)c2-c2ccccc2N1C(=O)CSC#N	46.04	93.06%	47.02%	–	–	–
CCCCSC1=C(C#N)C(=O)NC(c2ccco2)S1 (stereo not drawn)	73.94	92.91%	18.96%	–	–	–
O=S(=O)(NNc1cnc2ccccc2n1)c1ccccc1C(F)(F)F	47.02	112.4%	65.42%	–	–	–
O=C(NC(=S)NCc1ccccc1)C1CCCC1	46.46	92.1%	45.64%	–	–	–
CCCCCOc1ccc(C(=O)/C=C/C(=O)O)cc1	53.61	97.46%	43.85%	–	–	–
CCOC(=O)c1cc(CC)sc1NC(=O)C=C(C)C	66	90.12%	24.13%	–	–	–
CNC(=S)N/N=C1\CCOc2ccc3ccccc3c21	46.39	96.07%	49.68%	–	–	–
Oc1ccc(NCc2ccc(Br)cc2)cc1	56.32	90.95%	34.63%	–	–	–
Cc1ccc(/C=C2\C(=O)Nc3ccc(Br)cc32)o1	58.85	77.59%	18.74%	–	–	–
CCCOC(=O)c1cc(-c2ccc(/C=C3\C(=O)N(CCCO)C(=O)C(C#N)=C3C)o2)ccc1Cl	82.57	75.5%	−7.072%	–	–	–
Cc1ccc(CCNC(=O)c2ccc3nc(-c4ccco4)c(-c4ccco4)nc3c2)cc1	64.01	99.74%	35.73%	–	–	–
